According to ChEMBL document CHEMBL4011590, “Structure-activity relationship studies on 3,5-dinitrophenyl tetrazoles as antitubercular agents” (Eur J Med Chem, 2017):
≈ marks a conversion by molar mass, not a printed value.

What was measured:
Format in all cases: functional
[1] = test system: Mycobacterium tuberculosis; assay: Antimycobacterial activity against Mycobacterium tuberculosis H37Rv CNCTC My 331/88 after 14 days by micromethod; conditions: H37Rv CNCTC My 331/88, 336 h
[2] = test system: Mycobacterium tuberculosis; assay: Antimycobacterial activity against Mycobacterium tuberculosis H37Rv CNCTC My 331/88 after 21 days by micromethod; conditions: H37Rv CNCTC My 331/88, 504 h
Mycobacterium avium [3] = assay: Antimycobacterial activity against Mycobacterium avium CNCTC My 330/80 after 14 days by micromethod; conditions: CNCTC My 330/80, 336 h
Mycobacterium avium [4] = assay: Antimycobacterial activity against Mycobacterium avium CNCTC My 330/80 after 21 days by micromethod; conditions: CNCTC My 330/80, 504 h
Mycobacterium kansasii [5] = assay: Antimycobacterial activity against Mycobacterium kansasii CNCTC My 235/80 after 7 days by micromethod; conditions: CNCTC My 235/80, 168 h
Mycobacterium kansasii [6] = assay: Antimycobacterial activity against Mycobacterium kansasii CNCTC My 235/80 after 14 days by micromethod; conditions: CNCTC My 235/80, 336 h
Mycobacterium kansasii [7] = assay: Antimycobacterial activity against Mycobacterium kansasii CNCTC My 235/80 after 21 days by micromethod; conditions: CNCTC My 235/80, 504 h
Mycobacterium kansasii [8] = assay: Antimycobacterial activity against Mycobacterium kansasii isolate 6509/96 after 7 days by micromethod; conditions: isolate 6509/96, 168 h
Mycobacterium kansasii [9] = assay: Antimycobacterial activity against Mycobacterium kansasii isolate 6509/96 after 14 days by micromethod; conditions: isolate 6509/96, 336 h
Mycobacterium kansasii [10] = assay: Antimycobacterial activity against Mycobacterium kansasii isolate 6509/96 after 21 days by micromethod; conditions: isolate 6509/96, 504 h
Staphylococcus aureus [11] = assay: Antibacterial activity against Staphylococcus aureus ATCC 6538 after 24 hrs by broth microdilution method; conditions: ATCC 6538, 24 h
Staphylococcus aureus [12] = assay: Antibacterial activity against Staphylococcus aureus ATCC 6538 after 48 hrs by broth microdilution method; conditions: ATCC 6538, 48 h
Staphylococcus aureus [13] = assay: Antibacterial activity against methicillin-resistant Staphylococcus aureus HK5996/08 after 24 hrs by broth microdilution method; conditions: HK5996/08, 24 h
Staphylococcus aureus [14] = assay: Antibacterial activity against methicillin-resistant Staphylococcus aureus HK5996/08 after 48 hrs by broth microdilution method; conditions: HK5996/08, 48 h
[15] = test system: Staphylococcus epidermidis; assay: Antibacterial activity against Staphylococcus epidermidis HK6966/08 after 24 hrs by broth microdilution method; conditions: HK6966/08, 24 h
[16] = test system: Staphylococcus epidermidis; assay: Antibacterial activity against Staphylococcus epidermidis HK6966/08 after 48 hrs by broth microdilution method; conditions: HK6966/08, 48 h
Enterococcus sp. [17] = assay: Antibacterial activity against Enterococcus sp. HK14365/08 after 24 hrs by broth microdilution method; conditions: HK14365/08, 24 h
Enterococcus sp. [18] = assay: Antibacterial activity against Enterococcus sp. HK14365/08 after 48 hrs by broth microdilution method; conditions: HK14365/08, 48 h
Escherichia coli [19] = assay: Antibacterial activity against Escherichia coli ATCC 8739 after 24 hrs by broth microdilution method; conditions: ATCC 8739, 24 h
Escherichia coli [20] = assay: Antibacterial activity against Escherichia coli ATCC 8739 after 48 hrs by broth microdilution method; conditions: ATCC 8739, 48 h
Klebsiella pneumoniae [21] = assay: Antibacterial activity against Klebsiella pneumoniae HK11750/08 after 24 hrs by broth microdilution method; conditions: HK11750/08, 24 h
Klebsiella pneumoniae [22] = assay: Antibacterial activity against Klebsiella pneumoniae HK11750/08 after 48 hrs by broth microdilution method; conditions: HK11750/08, 48 h
Klebsiella pneumoniae [23] = assay: Antibacterial activity against extended spectrum beta-lactamase producing Klebsiella pneumoniae HK14368/08 after 24 hrs by broth microdilution method; conditions: HK14368/08, 24 h
Klebsiella pneumoniae [24] = assay: Antibacterial activity against extended spectrum beta-lactamase producing Klebsiella pneumoniae HK14368/08 after 48 hrs by broth microdilution method; conditions: HK14368/08, 48 h
Pseudomonas aeruginosa [25] = assay: Antibacterial activity against Pseudomonas aeruginosa ATCC 9027 after 24 hrs by broth microdilution method; conditions: ATCC 9027, 24 h
Pseudomonas aeruginosa [26] = assay: Antibacterial activity against Pseudomonas aeruginosa ATCC 9027 after 48 hrs by broth microdilution method; conditions: ATCC 9027, 48 h
Candida albicans [27] = assay: Antifungal activity against Candida albicans ATCC 44859 after 24 hrs by broth microdilution method; conditions: ATCC 44859, 24 h
Candida albicans [28] = assay: Antifungal activity against Candida albicans ATCC 44859 after 48 hrs by broth microdilution method; conditions: ATCC 44859, 48 h
Candida tropicalis [29] = assay: Antifungal activity against Candida tropicalis 156 after 24 hrs by broth microdilution method; conditions: Candida tropicalis, 156, 24 h
Candida tropicalis [30] = assay: Antifungal activity against Candida tropicalis 156 after 48 hrs by broth microdilution method; conditions: Candida tropicalis, 156, 48 h
Pichia kudriavzevii [31] = assay: Antifungal activity against Candida krusei E28 after 24 hrs by broth microdilution method; conditions: E28, 24 h
Pichia kudriavzevii [32] = assay: Antifungal activity against Candida krusei E28 after 48 hrs by broth microdilution method; conditions: E28, 48 h
Nakaseomyces glabratus [33] = assay: Antifungal activity against Candida glabrata 20/I after 24 hrs by broth microdilution method
Nakaseomyces glabratus [34] = assay: Antifungal activity against Candida glabrata 20/I after 48 hrs by broth microdilution method
Trichosporon asahii [35] = assay: Antifungal activity against Trichosporon asahii 1188 after 24 hrs by broth microdilution method; conditions: Trichosporon asahii, 1188, 24 h
Trichosporon asahii [36] = assay: Antifungal activity against Trichosporon asahii 1188 after 48 hrs by broth microdilution method; conditions: Trichosporon asahii, 1188, 48 h
Aspergillus fumigatus [37] = assay: Antifungal activity against Aspergillus fumigatus 231 after 24 hrs by broth microdilution method; conditions: Aspergillus fumigatus, 231, 24 h
Aspergillus fumigatus [38] = assay: Antifungal activity against Aspergillus fumigatus 231 after 48 hrs by broth microdilution method; conditions: Aspergillus fumigatus, 231, 48 h
Lichtheimia corymbifera [39] = assay: Antifungal activity against Absidia corymbifera 272 after 24 hrs by broth microdilution method; conditions: Lichtheimia corymbifera, 272, 24 h
Lichtheimia corymbifera [40] = assay: Antifungal activity against Absidia corymbifera 272 after 48 hrs by broth microdilution method; conditions: Lichtheimia corymbifera, 272, 48 h
[41] = test system: Trichophyton mentagrophytes; assay: Antifungal activity against Trichophyton mentagrophytes 445 after 72 hrs by broth microdilution method; conditions: Trichophyton mentagrophytes, 445, 72 h
[42] = test system: Trichophyton mentagrophytes; assay: Antifungal activity against Trichophyton mentagrophytes 445 after 120 hrs by broth microdilution method; conditions: Trichophyton mentagrophytes, 445, 120 h

## Cn1nnnc1SCn1nnc(-c2cc([N+](=O)[O-])cc([N+](=O)[O-])c2)n1
[1]
  MIC99: 2 µM (≈ 0.729 µg/mL)
[2]
  MIC99: 2 µM (≈ 0.729 µg/mL)
Mycobacterium avium [3]
  MIC99: 32 µM (≈ 11.7 µg/mL)
Mycobacterium avium [4]
  MIC99: 32 µM (≈ 11.7 µg/mL)
Mycobacterium kansasii [5]
  MIC99: 16 µM (≈ 5.83 µg/mL)
Mycobacterium kansasii [6]
  MIC99: 32 µM (≈ 11.7 µg/mL)
Mycobacterium kansasii [7]
  MIC99: 32 µM (≈ 11.7 µg/mL)
Mycobacterium kansasii [8]
  MIC99: 16 µM (≈ 5.83 µg/mL)
Mycobacterium kansasii [9]
  MIC99: 32 µM (≈ 11.7 µg/mL)
Mycobacterium kansasii [10]
  MIC99: 32 µM (≈ 11.7 µg/mL)
Staphylococcus aureus [11]
  MIC: > 500 µM
Staphylococcus aureus [12]
  MIC: > 500 µM
Staphylococcus aureus [13]
  MIC: > 500 µM
Staphylococcus aureus [14]
  MIC: > 500 µM
[15]
  MIC: 125 µM (≈ 45.5 µg/mL)
[16]
  MIC: 125 µM (≈ 45.5 µg/mL)
Enterococcus sp. [17]
  MIC: 500 µM (≈ 182 µg/mL)
Enterococcus sp. [18]
  MIC: 500 µM (≈ 182 µg/mL)
Escherichia coli [19]
  MIC: > 500 µM
Escherichia coli [20]
  MIC: > 500 µM
Klebsiella pneumoniae [21]
  MIC: > 500 µM
Klebsiella pneumoniae [22]
  MIC: > 500 µM
Klebsiella pneumoniae [23]
  MIC: > 500 µM
Klebsiella pneumoniae [24]
  MIC: > 500 µM
Pseudomonas aeruginosa [25]
  MIC: > 500 µM
Pseudomonas aeruginosa [26]
  MIC: > 500 µM
Candida albicans [27]
  MIC: > 500 µM
Candida albicans [28]
  MIC: > 500 µM
Candida tropicalis [29]
  MIC: > 500 µM
Candida tropicalis [30]
  MIC: > 500 µM
Pichia kudriavzevii [31]
  MIC: > 500 µM
Pichia kudriavzevii [32]
  MIC: > 500 µM
Nakaseomyces glabratus [33]
  MIC: > 500 µM
Nakaseomyces glabratus [34]
  MIC: > 500 µM
Trichosporon asahii [35]
  MIC: > 500 µM
Trichosporon asahii [36]
  MIC: > 500 µM
Aspergillus fumigatus [37]
  MIC: > 500 µM
Aspergillus fumigatus [38]
  MIC: > 500 µM
Lichtheimia corymbifera [39]
  MIC: > 500 µM
Lichtheimia corymbifera [40]
  MIC: > 500 µM
[41]
  MIC: > 500 µM
[42]
  MIC: > 500 µM

## O=[N+]([O-])c1cc(-c2nnn(CSc3nnnn3Cc3ccccc3)n2)cc([N+](=O)[O-])c1
[1]
  MIC99: 0.125 µM (≈ 0.0551 µg/mL)
[2]
  MIC99: 0.125 µM (≈ 0.0551 µg/mL)
Mycobacterium avium [3]
  MIC99: 16 µM (≈ 7.05 µg/mL)
Mycobacterium avium [4]
  MIC99: 32 µM (≈ 14.1 µg/mL)
Mycobacterium kansasii [5]
  MIC99: 2 µM (≈ 0.881 µg/mL)
Mycobacterium kansasii [6]
  MIC99: 4 µM (≈ 1.76 µg/mL)
Mycobacterium kansasii [7]
  MIC99: 4 µM (≈ 1.76 µg/mL)
Mycobacterium kansasii [8]
  MIC99: 2 µM (≈ 0.881 µg/mL)
Mycobacterium kansasii [9]
  MIC99: 4 µM (≈ 1.76 µg/mL)
Mycobacterium kansasii [10]
  MIC99: 4 µM (≈ 1.76 µg/mL)
Staphylococcus aureus [11]
  MIC: > 125 µM
Staphylococcus aureus [12]
  MIC: > 125 µM
Staphylococcus aureus [13]
  MIC: > 125 µM
Staphylococcus aureus [14]
  MIC: > 125 µM
[15]
  MIC: > 125 µM
[16]
  MIC: > 125 µM
Enterococcus sp. [17]
  MIC: > 125 µM
Enterococcus sp. [18]
  MIC: > 125 µM
Escherichia coli [19]
  MIC: > 125 µM
Escherichia coli [20]
  MIC: > 125 µM
Klebsiella pneumoniae [21]
  MIC: > 125 µM
Klebsiella pneumoniae [22]
  MIC: > 125 µM
Klebsiella pneumoniae [23]
  MIC: > 125 µM
Klebsiella pneumoniae [24]
  MIC: > 125 µM
Pseudomonas aeruginosa [25]
  MIC: > 125 µM
Pseudomonas aeruginosa [26]
  MIC: > 125 µM
Candida albicans [27]
  MIC: > 125 µM
Candida albicans [28]
  MIC: > 125 µM
Candida tropicalis [29]
  MIC: > 125 µM
Candida tropicalis [30]
  MIC: > 125 µM
Pichia kudriavzevii [31]
  MIC: > 125 µM
Pichia kudriavzevii [32]
  MIC: > 125 µM
Nakaseomyces glabratus [33]
  MIC: > 125 µM
Nakaseomyces glabratus [34]
  MIC: > 125 µM
Trichosporon asahii [35]
  MIC: > 125 µM
Trichosporon asahii [36]
  MIC: > 125 µM
Aspergillus fumigatus [37]
  MIC: > 125 µM
Aspergillus fumigatus [38]
  MIC: > 125 µM
Lichtheimia corymbifera [39]
  MIC: > 125 µM
Lichtheimia corymbifera [40]
  MIC: > 125 µM
[41]
  MIC: > 125 µM
[42]
  MIC: > 125 µM
